Results from ChEMBL document CHEMBL1201862, “PubChem BioAssay data set” (2004).
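Each compound was tested at five concentrations against cells in 96-well plates for 48 hours. The concentration for 50% growth inhibition is given as GI50.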 Activity calls are given as the source filed them. No stated cut-off is given here; in the data, active = GI50 up to about 1.1 µM and inactive = higher.

How the values were obtained:
Experiment in all cases: growth of human tumour cells (NCI), 48 h
[1] = test system: SF-295
[2] = test system: SF-539
[3] = test system: TK-10
[4] = test system: MDA-MB-231
[5] = test system: NCI-H460
[6] = test system: RPMI-8226
[7] = test system: EKVX
[8] = test system: SK-MEL-5
[9] = test system: SK-MEL-28
[10] = test system: A549
[11] = test system: K562
[12] = test system: COLO 205
[13] = test system: UO-31
[14] = test system: NCI-H23
[15] = test system: NCI-H522
[16] = test system: IGROV-1
[17] = test system: SK-MEL-2
[18] = test system: HCT-15

Question: Which results are given for Oc1ccc(Cl)cc1Cc1cc(Cl)cc(Cc2cc(Cl)ccc2O)c1O?
Answer: GI50 [1]: 2.29 µM (inactive); GI50 [2]: 1.64 µM (inactive); GI50 [3]: 2.72 µM (inactive); GI50 [4]: 2.53 µM (inactive); GI50 [5]: 1.77 µM (inactive); GI50 [6]: 0.91 µM (active); GI50 [7]: 2.33 µM (inactive); GI50 [8]: 1.11 µM (active); GI50 [9]: 3.24 µM (inactive); GI50 [10]: 2.83 µM (inactive); GI50 [11]: 1.63 µM (inactive); GI50 [12]: 1.76 µM (inactive); GI50 [13]: 3.01 µM (inactive); GI50 [14]: 2.01 µM (inactive); GI50 [15]: 0.766 µM (active); GI50 [16]: 3.2 µM (inactive); GI50 [17]: 2.61 µM (inactive); GI50 [18]: 2.54 µM

Question: Which results are given for COc1ccc(OC)c(NC2=NCCO2)c1?
Answer: GI50 [1]: > 100 µM (inactive); GI50 [2]: > 100 µM (inactive); GI50 [3]: > 100 µM (inactive); GI50 [4]: > 100 µM (inactive); GI50 [5]: > 100 µM (inactive); GI50 [6]: > 100 µM (inactive); GI50 [7]: > 100 µM (inactive); GI50 [8]: > 100 µM (inactive); GI50 [9]: > 100 µM (inactive); GI50 [10]: > 100 µM (inactive); GI50 [11]: > 100 µM (inactive); GI50 [12]: > 100 µM (inactive); GI50 [13]: > 100 µM (inactive); GI50 [14]: 52.4 µM (inactive); GI50 [15]: > 100 µM (inactive); GI50 [16]: > 100 µM (inactive); GI50 [17]: 18 µM (inactive); GI50 [18]: > 100 µM

Question: How did the GI50 [1] turn out when CSC(SC)=C(C(=O)c1ccc(Cl)cc1)n1c(=O)sc2cc(Br)ccc21 was run?
Answer: > 100 µM (inactive)

Question: What about the GI50 [2] of the same compound?
Answer: > 100 µM (inactive)

Question: And the GI50 [3]?
Answer: > 100 µM (inactive)

Question: And the GI50 [4]?
Answer: > 100 µM (inactive)

Question: And the GI50 [5]?
Answer: > 100 µM (inactive)

Question: What about the GI50 [6] of the same compound?
Answer: > 100 µM (inactive)

Question: And the GI50 [7]?
Answer: > 100 µM (inactive)

Question: What about the GI50 [8] of the same compound?
Answer: > 100 µM (inactive)

Question: And the GI50 [9]?
Answer: > 100 µM (inactive)

Question: What about the GI50 [10] of the same compound?
Answer: > 100 µM (inactive)

Question: What about the GI50 [11] of the same compound?
Answer: 36.5 µM (inactive)

Question: What about the GI50 [12] of the same compound?
Answer: 66.4 µM (inactive)

Question: What about the GI50 [13] of the same compound?
Answer: > 100 µM (inactive)

Question: And the GI50 [14]?
Answer: > 100 µM (inactive)

Question: What about the GI50 [15] of the same compound?
Answer: > 100 µM (inactive)

Question: And the GI50 [16]?
Answer: > 100 µM (inactive)

Question: What about the GI50 [17] of the same compound?
Answer: > 100 µM (inactive)

Question: What about the GI50 [18] of the same compound?
Answer: > 100 µM

Question: For O=[N+]([O-])c1ccc(/C=N\N=c2/ccc([N+](=O)[O-])c[nH]2)cc1, which GI50 [1] is on record?
Answer: > 100 µM (inactive)

Question: What about the GI50 [2] of the same compound?
Answer: 32.6 µM (inactive)

Question: What about the GI50 [3] of the same compound?
Answer: > 100 µM (inactive)

Question: And the GI50 [4]?
Answer: 46 µM (inactive)

Question: And the GI50 [5]?
Answer: > 100 µM (inactive)

Question: What about the GI50 [6] of the same compound?
Answer: > 100 µM (inactive)

Question: What about the GI50 [7] of the same compound?
Answer: > 100 µM (inactive)

Question: What about the GI50 [8] of the same compound?
Answer: > 100 µM (inactive)

Question: And the GI50 [9]?
Answer: > 100 µM (inactive)

Question: What about the GI50 [10] of the same compound?
Answer: > 100 µM (inactive)

Question: And the GI50 [11]?
Answer: > 100 µM (inactive)

Question: What about the GI50 [12] of the same compound?
Answer: > 100 µM (inactive)

Question: And the GI50 [13]?
Answer: > 100 µM (inactive)

Question: What about the GI50 [14] of the same compound?
Answer: > 100 µM (inactive)

Question: What about the GI50 [15] of the same compound?
Answer: > 100 µM (inactive)

Question: And the GI50 [16]?
Answer: > 100 µM (inactive)

Question: What about the GI50 [17] of the same compound?
Answer: > 100 µM (inactive)

Question: What about the GI50 [18] of the same compound?
Answer: > 100 µM

Question: Which GI50 [1] does the source give for O=C(Nc1ccccc1)c1cc(S(=O)(=O)n2ccnc2O)c(S)cc1Cl here?
Answer: > 100 µM (inactive)

Question: What about the GI50 [2] of the same compound?
Answer: > 100 µM (inactive)

Question: And the GI50 [3]?
Answer: > 100 µM (inactive)

Question: What about the GI50 [4] of the same compound?
Answer: > 100 µM (inactive)

Question: What about the GI50 [5] of the same compound?
Answer: > 100 µM (inactive)

Question: What about the GI50 [6] of the same compound?
Answer: > 100 µM (inactive)

Question: And the GI50 [7]?
Answer: > 100 µM (inactive)

Question: And the GI50 [8]?
Answer: > 100 µM (inactive)

Question: And the GI50 [9]?
Answer: > 100 µM (inactive)

Question: And the GI50 [10]?
Answer: > 100 µM (inactive)

Question: And the GI50 [11]?
Answer: > 100 µM (inactive)

Question: What about the GI50 [12] of the same compound?
Answer: > 100 µM (inactive)

Question: What about the GI50 [13] of the same compound?
Answer: > 100 µM (inactive)

Question: What about the GI50 [14] of the same compound?
Answer: > 100 µM (inactive)

Question: And the GI50 [15]?
Answer: > 100 µM (inactive)

Question: And the GI50 [16]?
Answer: > 100 µM (inactive)

Question: What about the GI50 [17] of the same compound?
Answer: > 100 µM (inactive)

Question: What about the GI50 [18] of the same compound?
Answer: > 100 µM

Question: Which results are given for O=C(CCN1CCCCC1)Nc1ccc2sc3ccccc3c(=O)c2n1?
Answer: GI50 [1]: 18.1 µM (inactive); GI50 [2]: 15.3 µM (inactive); GI50 [3]: 15.7 µM (inactive); GI50 [4]: 14.7 µM (inactive); GI50 [5]: 13.7 µM (inactive); GI50 [6]: 6.04 µM (inactive); GI50 [7]: 20.2 µM (inactive); GI50 [8]: 21.6 µM (inactive); GI50 [9]: 16.7 µM (inactive); GI50 [10]: 15 µM (inactive); GI50 [11]: 6.38 µM (inactive); GI50 [12]: 8.32 µM (inactive); GI50 [13]: 9.79 µM (inactive); GI50 [14]: > 10 µM (inactive); GI50 [15]: 12 µM (inactive); GI50 [16]: 13.4 µM (inactive); GI50 [17]: > 10 µM (inactive); GI50 [18]: 15.1 µM
